Results published in US9855265B2, “Methods for treating cancer with TrkA receptor tyrosine kinase antagonists” (VM Oncology LLC, priority 2014, dated 2018).
pIC50: −log10 of the molar value.

Tests used:
PKCbetaI = PKCbetaI (Homo sapiens, UniProt P05771); assay: radiometric kinase assay, other kinases: PKCbetaI; assay type: biochemical; settings: duplicate
Protocol: (§1) Compound inhibition in a radiometric based mixed micelle assay: In a final reaction volume of 25 μL, TrkA (h) ([…]) is incubated with the kinase reaction buffer (20 mM HEPES (pH 7.5), 10 mM MgCl2, 1 mM EGTA, 0.02% Brij 35, 0.02 mg/ml BSA, 0.1 mM Na3VO4, 2 mM DTT, 1% DMSO), 0.2 mg/ml substrate PolyEY(4:1) and […], and [^33P-ATP](specific activity approx. 500 cpm/pmol, concentration as required). The reaction is initiated by the addition of the MgATP mix. After incubation for at least 40 minutes at room temperature, the reaction is stopped by the addition of 5 μL of a 3% phosphoric acid solution. 10 μL of the reaction is then spotted onto a P30 filtermat and washed three times for 5 minutes in 75 mM phosphoric acid and once in methanol prior to drying and scintillation counting. TrkA: Recombinant Human Cytoplasmic Domain (amino acids 441-796), Histidine-tagged, expressed in insect cells. Activated in vitro via auto-phosphorylation. Mw=42.8 kDa. Substrates for kinases: poly(EY) for TRKA; poly(EY)(4:1) with 2 mM MnCl2, average Mw=16 kDa Standard conditions (unless otherwise specified): 30 nM TRKA, 0.2 mg/ml poly(EY)+2 mM MnCl2, and 10 μM ([γ-^33P]) ATP. Using the similar assay condition with other kinases of recombinant human cytoplasmic domain, the activities of other kinases could be also measured.

EPHA1 = target: T1, EPHA1 (Homo sapiens, UniProt P21709); assay: radiometric kinase assay, other kinases: EPHA1; assay type: biochemical; settings: duplicate
T1 construct: other kinases of recombinant human cytoplasmic domain
T1 sequence (P21709 569-976 limits assumed): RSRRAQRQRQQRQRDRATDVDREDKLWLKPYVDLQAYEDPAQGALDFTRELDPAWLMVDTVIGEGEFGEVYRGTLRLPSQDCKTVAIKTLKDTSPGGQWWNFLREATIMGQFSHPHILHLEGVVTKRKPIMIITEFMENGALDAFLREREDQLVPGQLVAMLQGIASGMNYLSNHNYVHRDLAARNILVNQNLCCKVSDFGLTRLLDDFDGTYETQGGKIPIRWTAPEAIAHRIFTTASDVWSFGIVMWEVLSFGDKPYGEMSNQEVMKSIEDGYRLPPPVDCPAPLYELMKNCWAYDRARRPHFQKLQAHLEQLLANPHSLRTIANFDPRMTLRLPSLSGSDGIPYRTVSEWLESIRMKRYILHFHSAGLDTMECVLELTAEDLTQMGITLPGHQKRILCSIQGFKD
Protocol: as §1

TGFbR2 = target: T2, TGFbR2 (Homo sapiens, UniProt P37173); assay: radiometric kinase assay, other kinases: TGFbR2; assay type: biochemical; settings: duplicate
T2 construct: other kinases of recombinant human cytoplasmic domain
T2 sequence (P37173 188-567 limits assumed): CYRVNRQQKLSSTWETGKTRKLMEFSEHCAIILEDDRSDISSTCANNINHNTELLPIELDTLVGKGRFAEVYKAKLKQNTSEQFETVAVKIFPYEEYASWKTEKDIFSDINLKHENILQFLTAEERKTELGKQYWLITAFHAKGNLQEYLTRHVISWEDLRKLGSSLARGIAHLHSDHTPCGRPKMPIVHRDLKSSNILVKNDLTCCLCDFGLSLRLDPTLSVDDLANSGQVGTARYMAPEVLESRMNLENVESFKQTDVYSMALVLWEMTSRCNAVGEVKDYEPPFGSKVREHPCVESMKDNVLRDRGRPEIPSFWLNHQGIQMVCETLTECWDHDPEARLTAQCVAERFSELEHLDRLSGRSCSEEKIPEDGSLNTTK
Protocol: as §1

[1] = tested on: SK-HEP-1 human liver cancer cells; assay: Cell Viability and Proliferation Assay, SK-HEP-1; assay type: cell-based; settings: SK-HEP1, after 24 incubation
Protocol: (§2) Cell Viability and Proliferation Assays. To assess the chemosensitivity of tumor cells, cell viability is measured by CellTiter-Glo® Luminescent Cell Viability Assay (Promega; Wis., USA) per the manufacturer's instruction. Briefly, 5×10^3 to 7×10^5 cells/ml are cultured in sterile 96-well plates in the presence of increasing concentrations of the drugs (test article, 0 to 100 μM), or vehicle in RPMI medium. The plates are then incubated for 24 to 96 h, and then 100 μl of CellTiter-Glo reagent is added to lyse the cells. After a 10-min incubation at room temperature, the luminescence is recorded in a luminometer with an integration time of 1 s per well. The luminescence signals for the drug-treated cells are normalized by the luminescence signal obtained from vehicle-treated cells. As an alternative method to quantitate cell viability, the trypan blue exclusion dye method was used. Vehicle- or drug-treated cells were assayed by adding trypan blue solution (0.4% in phosphate-buffered saline [PBS]) to the culture medium. After 3 min, the number of dead cells that retained the dye is compared to the total number of cells to calculate cell viability. GraphPad Prism 5 software is used to calculate IC50 and plot effect-dose curve of drugs. Multiplate reader: EnVision 2104 (PerkinElmer). % of control variability=100*[(X(drug_treated)−L(baseline))/(H(vehicle_control)−L(baseline))]. […]

ARAF = ARAF (Homo sapiens, UniProt P10398); assay: radiometric kinase assay, other kinases: ARAF; assay type: biochemical; settings: duplicate
Sequence of ARAF (P10398 whole entry): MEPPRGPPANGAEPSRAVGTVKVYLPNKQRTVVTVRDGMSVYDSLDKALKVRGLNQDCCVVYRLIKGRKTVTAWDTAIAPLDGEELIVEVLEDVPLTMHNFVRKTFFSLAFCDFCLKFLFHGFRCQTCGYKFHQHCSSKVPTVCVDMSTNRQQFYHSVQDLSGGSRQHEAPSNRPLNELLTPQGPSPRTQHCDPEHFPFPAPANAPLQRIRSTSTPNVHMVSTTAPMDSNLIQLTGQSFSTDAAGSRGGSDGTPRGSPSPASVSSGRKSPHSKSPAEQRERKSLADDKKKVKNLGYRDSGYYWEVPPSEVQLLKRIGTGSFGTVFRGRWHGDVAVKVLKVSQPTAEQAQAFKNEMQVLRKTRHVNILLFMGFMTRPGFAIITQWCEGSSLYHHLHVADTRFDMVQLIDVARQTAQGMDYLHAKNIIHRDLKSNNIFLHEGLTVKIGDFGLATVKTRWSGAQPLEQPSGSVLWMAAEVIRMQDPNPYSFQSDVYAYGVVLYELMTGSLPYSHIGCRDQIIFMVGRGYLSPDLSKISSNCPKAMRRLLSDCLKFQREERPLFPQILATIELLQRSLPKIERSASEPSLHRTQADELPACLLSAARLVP
Protocol: as §1

FYN = FYN (Homo sapiens, UniProt P06241); assay: radiometric kinase assay, other kinases: FYN; assay type: biochemical; settings: duplicate
Protocol: as §1

PKG1a = PKG1a (Homo sapiens, UniProt Q13976); assay: radiometric kinase assay, other kinases: PKG1a; assay type: biochemical; settings: duplicate
Sequence of PKG1a (Q13976 whole entry): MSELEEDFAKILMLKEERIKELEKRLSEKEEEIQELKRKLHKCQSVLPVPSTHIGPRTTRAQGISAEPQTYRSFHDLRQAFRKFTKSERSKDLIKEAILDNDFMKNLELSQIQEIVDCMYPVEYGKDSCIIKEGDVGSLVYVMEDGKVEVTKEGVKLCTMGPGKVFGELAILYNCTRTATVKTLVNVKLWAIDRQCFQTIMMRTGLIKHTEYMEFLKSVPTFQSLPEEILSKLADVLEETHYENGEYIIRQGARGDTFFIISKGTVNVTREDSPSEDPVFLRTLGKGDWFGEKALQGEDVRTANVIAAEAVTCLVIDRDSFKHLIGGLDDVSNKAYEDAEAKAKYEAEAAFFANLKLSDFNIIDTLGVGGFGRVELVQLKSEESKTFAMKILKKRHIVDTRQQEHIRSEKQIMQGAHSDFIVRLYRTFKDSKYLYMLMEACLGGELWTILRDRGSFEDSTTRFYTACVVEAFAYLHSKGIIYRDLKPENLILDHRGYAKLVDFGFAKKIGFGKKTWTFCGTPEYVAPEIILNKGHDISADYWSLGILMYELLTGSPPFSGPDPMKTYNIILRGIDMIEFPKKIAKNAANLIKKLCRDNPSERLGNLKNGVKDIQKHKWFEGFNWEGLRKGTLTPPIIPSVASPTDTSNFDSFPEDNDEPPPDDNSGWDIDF
Protocol: as §1

LYN = LYN (Homo sapiens, UniProt P07948); assay: radiometric kinase assay, other kinases: LYN; assay type: biochemical; settings: duplicate
Sequence of LYN (P07948 whole entry): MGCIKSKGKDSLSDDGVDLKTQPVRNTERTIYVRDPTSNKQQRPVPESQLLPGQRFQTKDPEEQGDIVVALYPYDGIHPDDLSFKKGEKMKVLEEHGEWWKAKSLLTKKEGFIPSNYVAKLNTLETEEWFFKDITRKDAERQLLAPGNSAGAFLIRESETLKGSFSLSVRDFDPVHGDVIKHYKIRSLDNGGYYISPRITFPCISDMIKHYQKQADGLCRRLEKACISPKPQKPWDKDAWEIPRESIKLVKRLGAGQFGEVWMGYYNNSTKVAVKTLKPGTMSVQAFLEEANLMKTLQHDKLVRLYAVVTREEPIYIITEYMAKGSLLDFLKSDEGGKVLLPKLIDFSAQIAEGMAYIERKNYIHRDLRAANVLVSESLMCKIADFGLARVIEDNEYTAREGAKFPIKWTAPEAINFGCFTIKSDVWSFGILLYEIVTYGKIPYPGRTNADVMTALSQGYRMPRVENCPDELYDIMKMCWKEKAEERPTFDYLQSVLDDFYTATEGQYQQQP
Protocol: as §1

[2] = tested on: AsPC-1 human pancreatic cancer cells; assay: Cell Viability and Proliferation Assay, AsPC-1; assay type: cell-based; settings: ASPC1, after 24 incubation
Protocol: as §2

[3] = tested on: BxPC-3 human pancreatic cancer cells; assay: Cell Viability and Proliferation Assay, BxPC-3; assay type: cell-based; settings: after 24 incubation
Protocol: as §2

[4] = tested on: carrageenan-induced pain in rats; assay: Carrageenan Pain Model; assay type: in vivo, Sprague-Dawley rats; settings: carrageenan rat model, 150 mg/kg oral dose, compared to indomethacin
Protocol: Carrageenan Pain Model The carrageenan model is a fast, reliable model used to assess the ability of analgesics to block inflammatory pain. The analgesic effects of test article combinations on pain generation are assayed using the carrageenan-induced pain model in rats. Adult male Sprague-Dawley rats are administered study drugs orally (vehicle, compounds of present disclosure) once daily for 2 days (day −2 and day −1) and 30 minutes prior to the carrageenan injection on day 0 (time=0). For the carrageenan injection, animals are lightly anesthetized and 0.1 ml of 2% carrageenan is injected into the plantar surface of the right hind paw. The positive control indomethacin (30 mg/kg, p.o.) is administered orally immediately before the carrageenan injection. Paw volumes (right and left) are measured using a Plethysmometer before drug administration on day −2 and serve as a baseline measurement. The paw volumes are measured again two hours post carrageenan injection. The degree of mechanical allodynia is measured by a blinded observer using Von Frey filaments applied to the plantar surface of the hind paws in an increasing numerical order. Each filament increases the force applied on the paw. The filaments are applied until animal paw withdrawal is achieved. […] Results are expressed as mean change from baseline across five timepoints post carrageenan injection.

RET = target: T3, RET (Homo sapiens, UniProt P07949); assay: radiometric kinase assay, other kinases: RET; assay type: biochemical; settings: duplicate
T3 construct: other kinases of recombinant human cytoplasmic domain
Protocol: as §1

[5] = tested on: MIA PaCa-2 human pancreatic cancer cells; assay: Cell Viability and Proliferation Assay, MIA PaCa-2; assay type: cell-based; settings: after 24 incubation
Protocol: as §2

PKA = PKA (Homo sapiens, UniProt P17612); assay: radiometric kinase assay, other kinases: PKA; assay type: biochemical; settings: duplicate
Protocol: as §1

VEGFR2/KDR = target: T4, VEGFR2/KDR (Homo sapiens, UniProt P35968); assay: radiometric kinase assay, other kinases: VEGFR2/KDR; assay type: biochemical; settings: duplicate
T4 construct: other kinases of recombinant human cytoplasmic domain
T4 sequence (P35968 786-1356 limits assumed): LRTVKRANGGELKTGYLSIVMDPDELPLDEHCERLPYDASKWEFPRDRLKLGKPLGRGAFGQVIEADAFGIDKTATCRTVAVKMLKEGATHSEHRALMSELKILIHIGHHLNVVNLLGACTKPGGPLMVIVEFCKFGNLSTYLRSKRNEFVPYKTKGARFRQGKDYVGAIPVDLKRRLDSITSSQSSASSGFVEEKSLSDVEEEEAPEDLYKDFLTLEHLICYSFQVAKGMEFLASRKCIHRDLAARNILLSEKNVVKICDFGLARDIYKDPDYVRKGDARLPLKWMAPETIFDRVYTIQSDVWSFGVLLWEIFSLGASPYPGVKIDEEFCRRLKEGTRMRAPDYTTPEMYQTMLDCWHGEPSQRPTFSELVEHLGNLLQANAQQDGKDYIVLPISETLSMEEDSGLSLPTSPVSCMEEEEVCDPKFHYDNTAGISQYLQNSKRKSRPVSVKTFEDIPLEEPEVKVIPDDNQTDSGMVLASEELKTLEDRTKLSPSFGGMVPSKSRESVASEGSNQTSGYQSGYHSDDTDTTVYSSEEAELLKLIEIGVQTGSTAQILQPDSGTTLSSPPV
Protocol: as §1

JNK3 = JNK3 (Homo sapiens, UniProt P53779); assay: radiometric kinase assay, other kinases: JNK3; assay type: biochemical; settings: duplicate
Sequence of JNK3 (P53779 whole entry): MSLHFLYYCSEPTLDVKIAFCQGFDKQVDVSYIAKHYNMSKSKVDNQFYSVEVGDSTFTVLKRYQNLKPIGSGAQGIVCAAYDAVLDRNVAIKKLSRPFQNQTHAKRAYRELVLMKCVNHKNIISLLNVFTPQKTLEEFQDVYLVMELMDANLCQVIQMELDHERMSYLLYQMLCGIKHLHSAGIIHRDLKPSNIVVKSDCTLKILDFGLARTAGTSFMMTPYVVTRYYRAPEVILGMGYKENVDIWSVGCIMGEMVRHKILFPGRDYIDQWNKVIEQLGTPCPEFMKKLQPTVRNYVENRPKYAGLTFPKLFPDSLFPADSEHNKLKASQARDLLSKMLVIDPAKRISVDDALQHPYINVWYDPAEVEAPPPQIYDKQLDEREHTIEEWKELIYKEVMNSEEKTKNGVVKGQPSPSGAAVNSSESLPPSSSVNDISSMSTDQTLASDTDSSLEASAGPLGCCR
Protocol: as §1

P38b/MAPK11 = P38b/MAPK11 (Homo sapiens, UniProt Q15759); assay: radiometric kinase assay, other kinases: P38b/MAPK11; assay type: biochemical; settings: duplicate
Sequence of P38b/MAPK11 (Q15759 whole entry): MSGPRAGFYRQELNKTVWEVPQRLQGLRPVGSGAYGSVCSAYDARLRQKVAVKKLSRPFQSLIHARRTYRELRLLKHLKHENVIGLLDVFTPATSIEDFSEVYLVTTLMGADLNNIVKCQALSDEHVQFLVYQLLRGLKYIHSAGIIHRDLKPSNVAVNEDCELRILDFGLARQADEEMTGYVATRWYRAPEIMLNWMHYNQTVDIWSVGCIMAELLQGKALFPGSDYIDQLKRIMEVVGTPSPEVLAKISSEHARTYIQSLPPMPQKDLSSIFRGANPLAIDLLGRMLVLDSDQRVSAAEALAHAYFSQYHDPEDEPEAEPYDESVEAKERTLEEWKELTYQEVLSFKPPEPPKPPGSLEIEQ
Protocol: as §1

Sequence of PKCbetaI (P05771 whole entry): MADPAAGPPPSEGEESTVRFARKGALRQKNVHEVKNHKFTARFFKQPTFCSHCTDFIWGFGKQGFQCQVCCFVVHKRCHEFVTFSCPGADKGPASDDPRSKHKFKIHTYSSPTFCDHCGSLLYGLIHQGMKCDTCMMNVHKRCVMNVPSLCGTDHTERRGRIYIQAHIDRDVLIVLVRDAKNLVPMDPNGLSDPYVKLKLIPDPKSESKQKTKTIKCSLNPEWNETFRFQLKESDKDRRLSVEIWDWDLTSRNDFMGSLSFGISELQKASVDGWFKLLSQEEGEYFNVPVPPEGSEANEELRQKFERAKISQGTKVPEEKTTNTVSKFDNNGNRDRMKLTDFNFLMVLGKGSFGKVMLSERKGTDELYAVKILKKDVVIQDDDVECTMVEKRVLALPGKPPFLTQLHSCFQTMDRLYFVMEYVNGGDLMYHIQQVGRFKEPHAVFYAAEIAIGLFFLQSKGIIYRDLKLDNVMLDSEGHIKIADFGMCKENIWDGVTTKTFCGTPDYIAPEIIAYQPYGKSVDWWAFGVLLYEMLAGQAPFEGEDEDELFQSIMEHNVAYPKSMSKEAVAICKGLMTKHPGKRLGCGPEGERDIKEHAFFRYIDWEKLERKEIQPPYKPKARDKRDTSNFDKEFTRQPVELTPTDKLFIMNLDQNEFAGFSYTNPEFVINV

## Nc1c(N2CCN(C3CCCCC3)CC2)cc(Nc2ccc(C(=O)O)cc2)c2c1C(=O)c1ccccc1C2=O [Compound 12, 4-{[4-amino-3-(4-cyclohexylpiperazin-1-yl)-9,10-dioxo-9,10-dihydroanthracen-1-yl]amino}benzoic acid]
PKCbetaI
  pIC50: < 5.00
EPHA1
  pIC50: < 5.00
TGFbR2
  pIC50: < 5.00
[1]
  pIC50: ~5.30
ARAF
  pIC50: < 5.00
FYN
  pIC50: < 5.00
PKG1a
  pIC50: < 5.00
LYN
  pIC50: < 5.00
[2]
  pIC50: 5.30 to 5.70
[3]
  pIC50: 5.30 to 5.70
[4]
  relative analgesic effect: about 85%
RET
  pIC50: < 5.00
[5]
  pIC50: 5.30 to 5.70
PKA
  pIC50: < 5.00
VEGFR2/KDR
  pIC50: < 5.00
JNK3
  pIC50: < 5.00
P38b/MAPK11
  pIC50: < 5.00
